Test results published in article PMC9288506, “Compounds activating VCP D1 ATPase enhance both autophagic and proteasomal neurotoxic protein clearance” (Nature Communications, 2022).

How the values were obtained:
Assay in all cases: biochemical
Design in all cases: Thermo Fisher in vitro kinase panel, per cent inhibition of kinase activity at 10 uM
PTK2 (FAK) = PTK2 (FAK) (Homo sapiens, UniProt Q05397)
Method: (§1) Kinase profiling of SMER28 and analogs SMER28 and analogs were tested at 10 µM in a panel of 123 kinases at ThermoFisher Scientific. Follow-up of selected kinases for SMER28 and analogs was also performed at ThermoFisher Scientific. Data are shown in Supplementary Data 2 and 3. […] An inhibition of PIK3C could induce autophagy, mediated by signaling through the AKT/mTOR axis[45].

JAK2 = JAK2 (Homo sapiens, UniProt O60674)
Method: as §1

AURKB (Aurora B) = AURKB (Aurora B) (Homo sapiens, UniProt Q96GD4)
Method: as §1

MAPKAPK2 = MAPKAPK2 (Homo sapiens, UniProt P49137)
Method: as §1

MAP3K9 (MLK1) = MAP3K9 (MLK1) (Homo sapiens, UniProt P80192)
Method: as §1

PIK3C3 (hVPS34) = PIK3C3 (hVPS34) (Homo sapiens, UniProt Q8NEB9)
Method: as §1

AURKC (Aurora C) = AURKC (Aurora C) (Homo sapiens, UniProt Q9UQB9)
Method: as §1

CSNK2A2 (CK2 alpha 2) = CSNK2A2 (CK2 alpha 2) (Homo sapiens, UniProt P19784)
Method: as §1

MARK2 = MARK2 (Homo sapiens, UniProt Q7KZI7)
Method: as §1

PRKG1 = PRKG1 (Homo sapiens, UniProt Q13976)
Method: as §1

ERBB2 (HER2) = ERBB2 (HER2) (Homo sapiens, UniProt P04626)
Method: as §1

EGFR (ErbB1) T790M L858R = EGFR (ErbB1) T790M L858R (Homo sapiens, UniProt P00533, L858R/T790M)
Method: as §1

ULK2 = ULK2 (Homo sapiens, UniProt Q8IYT8)
Method: as §1

CDK1/cyclin B = CDK1/cyclin B (Homo sapiens, UniProt P06493)
Method: as §1

NEK2 = NEK2 (Homo sapiens, UniProt P51955)
Method: as §1

CAMK2B (CaMKII beta) = CAMK2B (CaMKII beta) (Homo sapiens, UniProt Q13554)
Method: as §1

AMPK A2/B1/G1 = target: T1, AMPK A2/B1/G1 (Homo sapiens, UniProt P54646)
T1 construct: gene PRKAA2
Method: as §1

AXL = AXL (Homo sapiens, UniProt P30530)
Method: as §1

SRPK1 = SRPK1 (Homo sapiens, UniProt Q96SB4)
Method: as §1

RPS6KB1 (p70S6K) = RPS6KB1 (p70S6K) (Homo sapiens, UniProt P23443)
Method: as §1

[1] = target: PIK3CD/PIK3R1 (p110 delta/p85 alpha) (Homo sapiens, UniProt O00329)
Method: as §1

FGFR2 = FGFR2 (Homo sapiens, UniProt P21802)
Method: as §1

DDR2 = DDR2 (Homo sapiens, UniProt Q16832)
Method: as §1

ABL1 = ABL1 (Homo sapiens, UniProt P00519)
Method: as §1

[2] = target: PIK3CB/PIK3R1 (p110 beta/p85 alpha) (Homo sapiens, UniProt P42338)
Method: as §1

PIK3CB/PIK3R1 (p110 beta/p85 alpha), sequence (P42338 whole entry): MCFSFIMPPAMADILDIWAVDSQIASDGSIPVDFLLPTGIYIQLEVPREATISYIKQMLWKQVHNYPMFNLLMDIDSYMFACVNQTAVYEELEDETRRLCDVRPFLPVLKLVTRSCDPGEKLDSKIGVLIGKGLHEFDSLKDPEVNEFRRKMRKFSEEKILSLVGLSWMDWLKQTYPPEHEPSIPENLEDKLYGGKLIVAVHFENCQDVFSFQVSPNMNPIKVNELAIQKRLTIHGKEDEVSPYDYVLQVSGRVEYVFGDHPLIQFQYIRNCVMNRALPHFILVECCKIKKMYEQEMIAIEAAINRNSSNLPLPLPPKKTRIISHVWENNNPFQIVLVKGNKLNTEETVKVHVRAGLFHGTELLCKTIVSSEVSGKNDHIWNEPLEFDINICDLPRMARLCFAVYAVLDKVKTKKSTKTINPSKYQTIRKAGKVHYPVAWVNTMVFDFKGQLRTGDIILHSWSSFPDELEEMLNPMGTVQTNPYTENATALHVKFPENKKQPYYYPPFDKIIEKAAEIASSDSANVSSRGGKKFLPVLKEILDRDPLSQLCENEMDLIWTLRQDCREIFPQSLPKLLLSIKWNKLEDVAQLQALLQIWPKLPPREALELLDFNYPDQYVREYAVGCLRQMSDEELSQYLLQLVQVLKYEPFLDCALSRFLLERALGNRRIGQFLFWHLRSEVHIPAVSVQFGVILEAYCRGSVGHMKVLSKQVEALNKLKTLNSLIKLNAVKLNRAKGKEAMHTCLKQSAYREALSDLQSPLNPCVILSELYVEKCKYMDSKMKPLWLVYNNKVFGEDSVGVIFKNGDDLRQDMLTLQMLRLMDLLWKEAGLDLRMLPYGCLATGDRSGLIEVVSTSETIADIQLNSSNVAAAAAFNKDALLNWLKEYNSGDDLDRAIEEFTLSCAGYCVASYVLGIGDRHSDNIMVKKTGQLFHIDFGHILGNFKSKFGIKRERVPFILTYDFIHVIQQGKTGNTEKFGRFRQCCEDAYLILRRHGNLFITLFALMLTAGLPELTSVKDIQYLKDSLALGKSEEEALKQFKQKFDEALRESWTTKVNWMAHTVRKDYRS
PIK3CB/PIK3R1 (p110 beta/p85 alpha), sequence (P27986 whole entry partner): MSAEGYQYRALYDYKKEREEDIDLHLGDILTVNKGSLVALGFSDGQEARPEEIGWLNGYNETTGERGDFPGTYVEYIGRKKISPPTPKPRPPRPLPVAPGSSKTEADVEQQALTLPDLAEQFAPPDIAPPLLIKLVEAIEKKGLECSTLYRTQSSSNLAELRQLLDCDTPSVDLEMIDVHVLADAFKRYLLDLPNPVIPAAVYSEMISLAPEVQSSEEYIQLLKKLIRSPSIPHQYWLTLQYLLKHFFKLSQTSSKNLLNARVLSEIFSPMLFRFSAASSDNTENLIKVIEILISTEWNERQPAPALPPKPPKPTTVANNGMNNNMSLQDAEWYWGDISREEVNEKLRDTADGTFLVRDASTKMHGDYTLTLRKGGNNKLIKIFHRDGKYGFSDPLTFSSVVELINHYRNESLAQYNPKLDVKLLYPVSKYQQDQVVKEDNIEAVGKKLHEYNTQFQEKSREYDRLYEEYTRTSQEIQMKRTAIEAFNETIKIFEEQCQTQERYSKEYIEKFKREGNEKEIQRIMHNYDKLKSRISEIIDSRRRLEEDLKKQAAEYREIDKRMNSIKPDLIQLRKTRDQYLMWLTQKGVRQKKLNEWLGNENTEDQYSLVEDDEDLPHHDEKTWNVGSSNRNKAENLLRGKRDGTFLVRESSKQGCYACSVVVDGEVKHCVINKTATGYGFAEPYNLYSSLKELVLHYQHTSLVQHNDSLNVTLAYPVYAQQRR
MAPKAPK2, sequence (P49137 whole entry): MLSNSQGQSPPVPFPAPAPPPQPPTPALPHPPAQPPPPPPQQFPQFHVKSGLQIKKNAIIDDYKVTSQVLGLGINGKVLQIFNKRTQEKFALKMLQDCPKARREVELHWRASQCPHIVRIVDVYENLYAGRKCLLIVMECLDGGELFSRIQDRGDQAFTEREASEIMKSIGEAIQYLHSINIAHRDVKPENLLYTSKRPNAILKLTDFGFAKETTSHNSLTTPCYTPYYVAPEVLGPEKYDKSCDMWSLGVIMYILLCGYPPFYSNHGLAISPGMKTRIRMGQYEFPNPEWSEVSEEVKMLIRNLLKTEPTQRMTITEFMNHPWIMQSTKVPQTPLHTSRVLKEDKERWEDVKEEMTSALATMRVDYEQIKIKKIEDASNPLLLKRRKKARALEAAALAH
AURKC (Aurora C), sequence (Q9UQB9 whole entry): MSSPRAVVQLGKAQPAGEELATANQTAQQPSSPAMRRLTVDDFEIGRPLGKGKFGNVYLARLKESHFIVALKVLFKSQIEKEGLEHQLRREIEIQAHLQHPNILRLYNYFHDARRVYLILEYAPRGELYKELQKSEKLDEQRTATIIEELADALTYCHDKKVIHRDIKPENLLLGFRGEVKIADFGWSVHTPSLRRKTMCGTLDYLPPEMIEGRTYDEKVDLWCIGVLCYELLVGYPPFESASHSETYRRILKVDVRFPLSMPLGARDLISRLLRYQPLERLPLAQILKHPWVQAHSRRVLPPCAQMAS
NEK2, sequence (P51955 whole entry): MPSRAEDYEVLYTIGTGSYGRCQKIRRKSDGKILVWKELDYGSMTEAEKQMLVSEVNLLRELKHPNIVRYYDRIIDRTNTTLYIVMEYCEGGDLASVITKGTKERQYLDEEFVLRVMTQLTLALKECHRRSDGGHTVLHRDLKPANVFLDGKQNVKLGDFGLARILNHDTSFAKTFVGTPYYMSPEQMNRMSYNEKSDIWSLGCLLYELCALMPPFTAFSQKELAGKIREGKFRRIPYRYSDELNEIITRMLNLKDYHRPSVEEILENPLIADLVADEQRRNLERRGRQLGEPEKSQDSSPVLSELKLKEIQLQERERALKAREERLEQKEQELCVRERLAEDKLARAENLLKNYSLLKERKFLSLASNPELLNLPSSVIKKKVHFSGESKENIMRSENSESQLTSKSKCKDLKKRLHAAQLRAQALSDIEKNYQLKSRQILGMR
MARK2, sequence (Q7KZI7 whole entry): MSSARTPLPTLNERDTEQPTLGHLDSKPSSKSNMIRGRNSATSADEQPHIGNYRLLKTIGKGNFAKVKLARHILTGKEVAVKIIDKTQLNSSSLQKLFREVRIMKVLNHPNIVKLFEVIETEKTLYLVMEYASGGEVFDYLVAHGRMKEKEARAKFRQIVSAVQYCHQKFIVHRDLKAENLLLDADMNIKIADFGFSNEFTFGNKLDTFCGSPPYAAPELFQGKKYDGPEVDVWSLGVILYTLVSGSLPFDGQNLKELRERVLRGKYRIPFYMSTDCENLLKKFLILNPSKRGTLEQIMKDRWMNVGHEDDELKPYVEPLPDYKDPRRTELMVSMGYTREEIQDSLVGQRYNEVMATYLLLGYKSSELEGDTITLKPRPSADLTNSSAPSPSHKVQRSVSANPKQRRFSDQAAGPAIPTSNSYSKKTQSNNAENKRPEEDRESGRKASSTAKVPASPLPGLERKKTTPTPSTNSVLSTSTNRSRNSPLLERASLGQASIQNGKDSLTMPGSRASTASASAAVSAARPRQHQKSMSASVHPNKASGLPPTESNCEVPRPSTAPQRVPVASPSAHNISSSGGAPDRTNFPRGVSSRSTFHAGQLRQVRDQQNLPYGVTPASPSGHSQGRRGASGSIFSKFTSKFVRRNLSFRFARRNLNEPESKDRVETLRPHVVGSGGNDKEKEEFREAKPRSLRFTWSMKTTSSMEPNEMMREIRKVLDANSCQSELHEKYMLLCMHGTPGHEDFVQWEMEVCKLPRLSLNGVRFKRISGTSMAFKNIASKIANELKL
CAMK2B (CaMKII beta), sequence (Q13554 whole entry): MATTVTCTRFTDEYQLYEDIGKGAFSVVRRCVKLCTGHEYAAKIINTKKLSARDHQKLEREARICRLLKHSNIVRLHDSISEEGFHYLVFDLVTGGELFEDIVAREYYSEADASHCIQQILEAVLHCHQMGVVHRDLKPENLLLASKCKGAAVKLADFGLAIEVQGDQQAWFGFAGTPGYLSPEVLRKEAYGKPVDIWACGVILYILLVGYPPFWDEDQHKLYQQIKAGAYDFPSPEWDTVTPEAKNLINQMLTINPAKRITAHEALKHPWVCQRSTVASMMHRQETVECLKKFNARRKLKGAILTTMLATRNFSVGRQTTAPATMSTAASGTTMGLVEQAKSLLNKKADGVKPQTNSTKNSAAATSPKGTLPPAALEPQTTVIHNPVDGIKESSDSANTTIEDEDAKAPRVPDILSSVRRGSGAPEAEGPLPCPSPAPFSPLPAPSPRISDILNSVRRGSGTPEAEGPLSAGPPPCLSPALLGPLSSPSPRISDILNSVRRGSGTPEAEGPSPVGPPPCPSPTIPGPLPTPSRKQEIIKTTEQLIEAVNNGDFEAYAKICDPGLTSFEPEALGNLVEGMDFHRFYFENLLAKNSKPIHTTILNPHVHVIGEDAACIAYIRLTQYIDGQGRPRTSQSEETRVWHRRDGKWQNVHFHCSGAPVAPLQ
AURKB (Aurora B), sequence (Q96GD4 whole entry): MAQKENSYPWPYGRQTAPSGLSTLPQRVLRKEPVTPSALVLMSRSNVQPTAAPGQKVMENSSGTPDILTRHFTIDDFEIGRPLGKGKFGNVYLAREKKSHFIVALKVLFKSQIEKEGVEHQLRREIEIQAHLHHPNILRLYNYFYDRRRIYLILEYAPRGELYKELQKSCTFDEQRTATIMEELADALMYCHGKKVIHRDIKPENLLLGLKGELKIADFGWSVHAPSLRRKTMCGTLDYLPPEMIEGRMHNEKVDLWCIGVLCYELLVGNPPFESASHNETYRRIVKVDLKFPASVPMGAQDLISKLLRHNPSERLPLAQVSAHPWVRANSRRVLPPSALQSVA

**Q.** `C=CCNc1ncnc2ccc(Br)cc12` [SMER28] was tested. Which inhibition at 10 µM (PTK2 (FAK)) did it give?
**A.** 8%

**Q.** What about the inhibition at 10 µM (JAK2) of the same compound?
**A.** 3%

**Q.** And the inhibition at 10 µM (AURKB (Aurora B))?
**A.** 18%

**Q.** What about the inhibition at 10 µM (MAPKAPK2) of the same compound?
**A.** 0%

**Q.** And the inhibition at 10 µM (MAP3K9 (MLK1))?
**A.** -2%

**Q.** What about the inhibition at 10 µM (PIK3C3 (hVPS34)) of the same compound?
**A.** 12%

**Q.** And the inhibition at 10 µM (AURKC (Aurora C))?
**A.** -6%

**Q.** What about the inhibition at 10 µM (CSNK2A2 (CK2 alpha 2)) of the same compound?
**A.** 10%

**Q.** What about the inhibition at 10 µM (MARK2) of the same compound?
**A.** 9%

**Q.** What about the inhibition at 10 µM (PRKG1) of the same compound?
**A.** 6%

**Q.** And the inhibition at 10 µM (ERBB2 (HER2))?
**A.** -1%

**Q.** What about the inhibition at 10 µM (EGFR (ErbB1) T790M L858R) of the same compound?
**A.** 15%

**Q.** And the inhibition at 10 µM (ULK2)?
**A.** 3%

**Q.** What about the inhibition at 10 µM (CDK1/cyclin B) of the same compound?
**A.** 22%

**Q.** And the inhibition at 10 µM (NEK2)?
**A.** -1%

**Q.** What about the inhibition at 10 µM (CAMK2B (CaMKII beta)) of the same compound?
**A.** 4%

**Q.** And the inhibition at 10 µM (AMPK A2/B1/G1)?
**A.** 12%

**Q.** And the inhibition at 10 µM (AXL)?
**A.** 17%

**Q.** What about the inhibition at 10 µM (SRPK1) of the same compound?
**A.** 5%

**Q.** What about the inhibition at 10 µM (RPS6KB1 (p70S6K)) of the same compound?
**A.** 22%

**Q.** What about the inhibition at 10 µM [1] of the same compound?
**A.** 78%

**Q.** And the inhibition at 10 µM (FGFR2)?
**A.** 19%

**Q.** What about the inhibition at 10 µM (DDR2) of the same compound?
**A.** 0%

**Q.** And the inhibition at 10 µM (ABL1)?
**A.** 11%

**Q.** What about the inhibition at 10 µM [2] of the same compound?
**A.** 23%
